Values quoted from earlier work in paper PMC8878452, “A Tale of Toxin Promiscuity: The Versatile Pharmacological Effects of Hcr 1b-2 Sea Anemone Peptide on Voltage-Gated Ion Channels” (Marine Drugs, 2022).
“Also recorded” adds a separate entry of the source. Like-named read-outs stand apart in the source and are kept apart here. Where no end group is shown, it is not given here.

Assays:
Nav1.6 = settings: cited from earlier work
Description: (§1) APETx1 are known to modulate hERG [21], Nav1.2–1.6, and Nav1.8 [20], while APETx2 modulates ASICs, Kv3.4, [22], and hERG [23], as well as Nav1.2, Nav1.6, and Nav1.8 [20]. APETx3 is known for interacting with Nav1.2–1.4, Nav1.6, DmNav1, BgNav1, and VdNav1 [20]. […] Like Hcr 1b-2, APETx1 inhibits the mammalian Nav1.2–1.6 and Nav1.8 isoforms, while APETx2 acts on Nav1.2, Nav1.6, and Nav1.8.

Nav1.8 = settings: cited from earlier work
Description: as §1

BgNav1 = settings: cited from earlier work; for effect on insect channel BgNav: printed BgNav
Description: as §1

Nav1.4 = settings: cited from earlier work
Description: as §1

Nav1.3 = settings: cited from earlier work
Description: as §1

Nav1.2 = settings: cited from earlier work
Description: as §1

Nav1.5 = settings: cited from earlier work
Description: as §1

Nav1.7 = settings: cited from earlier work
Description: (§2) APETx1 and APETx2 are well-known sea anemone peptides that are characterized as sodium channel modulators. Like Hcr 1b-2, APETx1 inhibits the mammalian Nav1.2–1.6 and Nav1.8 isoforms, while APETx2 acts on Nav1.2, Nav1.6, and Nav1.8.

Nav1.1 = settings: cited from earlier work
Description: as §2

hERG = settings: cited from earlier work
Description: APETx1 are known to modulate hERG [21], Nav1.2–1.6, and Nav1.8 [20], while APETx2 modulates ASICs, Kv3.4, [22], and hERG [23], as well as Nav1.2, Nav1.6, and Nav1.8 [20]. APETx3 is known for interacting with Nav1.2–1.4, Nav1.6, DmNav1, BgNav1, and VdNav1 [20]. […] Previous studies have shown that F15, Y32, F33, and L34 seem to be key residues for the interaction between APETx1 and hERG, as they are located on the molecular surface of this peptide. Hcr 1b-2 shares the same residues in its sequence (Figure 1), which can explain the similar effect observed.

Kv3.4 = test system: Kv3.4; parameters: method as in 2 sources, ref 22 = [22]; PMID 15044953; doi:10.1038/sj.emboj.7600177; 22. Diochot S. Baron A. Rash L.D. Deval E. Escoubas P. Scarzello S. Salinas M. Lazdunski M. A new sea anemone peptide, APETx2, inhibits ASIC3, a major acid-sensitive channel in sensory neurons EMBO J. ||| ref 33 = [33]; PMID 16177043; doi:10.1523/JNEUROSCI.2119-05.2005; 33. Yeung S.Y. Thompson D. Wang Z. Fedida D. Robertson B. Modulation of Kv3 subfamily potassium currents by the sea anemone toxin BDS: Significance for CNS and biophysical studies J. Neurosci. 2005 25; settings: cited from earlier work
Nav channels = settings: cited from earlier work
Description: as §2

ASIC = test system: ASIC; parameters: method as in 2 sources, one per row (each row's own in cited_ref): ref 17 = [17]; PMID 29684594; doi:10.1016/j.peptides.2018.04.013; 17. Kalina R. Gladkikh I. Dmitrenok P. Chernikov O. Koshelev S. Kvetkina A. Kozlov S. Kozlovskaya E. Monastyrnaya M. New APETx-like peptides from sea anemone Heteractis crispa modulate ASIC1a channels ||| ref 22 = [22]; PMID 15044953; doi:10.1038/sj.emboj.7600177; 22. Diochot S. Baron A. Rash L.D. Deval E. Escoubas P. Scarzello S. Salinas M. Lazdunski M. A new sea anemone peptide, APETx2, inhibits ASIC3, a major acid-sensitive channel in sensory neurons EMBO J.; settings: cited from earlier work
DmNav1 = settings: cited from earlier work
Description: (§3) APETx1 are known to modulate hERG [21], Nav1.2–1.6, and Nav1.8 [20], while APETx2 modulates ASICs, Kv3.4, [22], and hERG [23], as well as Nav1.2, Nav1.6, and Nav1.8 [20]. APETx3 is known for interacting with Nav1.2–1.4, Nav1.6, DmNav1, BgNav1, and VdNav1 [20].

VdNav1 = settings: cited from earlier work
Description: as §3

Kv2.1 = settings: cited from earlier work
Description: as §3

Kv1.3 = settings: cited from earlier work
Description: as §3

Kv1.5 = settings: cited from earlier work
Description: as §3

Kv1.4 = settings: cited from earlier work
Description: as §3

Kv10.1 = settings: cited from earlier work
Kv3.1 = settings: cited from earlier work
Description: (§4) The only targets in which Hcr 1b-2 was not active were Kv3.1 and Kv10.1 (Figure 2 and Figure 3). Among sea anemone toxins, BDS-I, from Anemonia sulcata, is a well-characterized toxin capable of inhibiting isoforms from the Kv3 family, being active on Kv3.1, Kv3.2, and Kv3.4 [33].

TTX-sensitive channels = settings: cited from earlier work
Description: as §4

Kv3.2 = settings: cited from earlier work
Description: as §4

TTX-resistant isoforms = settings: cited from earlier work
Description: as §4

Row | Substance | effect on Nav1.6 (Nav1.6) | effect on Nav1.8 (Nav1.8) | effect on insect channel BgNav (BgNav1) | effect on Nav1.4 (Nav1.4) | effect on Nav1.3 (Nav1.3) | effect on Nav1.2 (Nav1.2) | effect on Nav1.5 (Nav1.5) | effect on Nav1.7 (Nav1.7) | effect on Nav1.1 (Nav1.1) | effect on hERG (hERG) | effect on Kv3.4 (Kv3.4) | further results
1 | APETx1: APETx family peptide from Anthopleura elegantissima, UniProt P61541 (GTTCYCGKTIGIYWFGTKTCPSNRGYTGSCGYFLGICCYPVD; ends and bridges not checked; cysteine pairing not given here; UniProt P61541 1-42, looked up) | modulate; also recorded: inhibits | modulate; also recorded: inhibits | unaffected | modulate; also recorded: inhibits | modulate; also recorded: inhibits | modulate; also recorded: inhibits | modulate; also recorded: inhibits | unaffected | unaffected | modulate |  | 
2 | APETx2: APETx family peptide from Anthopleura elegantissima, UniProt P61542 (GTACSCGNSKGIYWFYRPSCPTDRGYTGSCRYFLGTCCTPAD; ends and bridges not checked; cysteine pairing not given here; UniProt P61542 1-42, looked up) | modulates; also recorded: acts on | modulates; also recorded: acts on | unaffected |  |  | modulates; also recorded: acts on |  | unaffected | unaffected | modulates | modulates | modulation of voltage-dependence of Nav channels (Nav channels): did not modulate the voltage-dependence; effect on ASICs (ASIC): modulates
3 | APETx3: APETx family peptide from Anthopleura elegantissima, UniProt B3EWF9 (GTPCYCGKTIGIYWFGTKTCPSNRGYTGSCGYFLGICCYPVD; ends and bridges not checked; cysteine pairing not given here; UniProt B3EWF9 1-42, looked up) | interacting |  |  | interacting | interacting | interacting |  |  |  |  |  | effect on BgNav1 (BgNav1): interacting; effect on hERG (hERG; Thr3Pro substitution): abolishes the activity; effect on DmNav1 (DmNav1): interacting; effect on VdNav1 (VdNav1): interacting
4 | APETx4: APETx family peptide from Anthopleura elegantissima, UniProt C0HL40 (GTTCYCGKTIGIYWFGKYSCPTNRGYTGSCPYFLGICCYPVD; ends and bridges not checked; cysteine pairing not given here; UniProt C0HL40 1-42, looked up) | modulates |  |  | modulates |  |  | modulates |  |  |  |  | effect on Kv2.1 (Kv2.1): modulates; effect on Kv1.3 (Kv1.3): modulates; effect on Kv1.5 (Kv1.5): modulates; effect on Kv1.4 (Kv1.4): modulates; effect on Kv10.1 (Kv10.1): notorious Kv10.1 inhibitor; also recorded: non-selective Kv10.1 inhibitor
5 | BDS-I: toxin from Anemonia sulcata, UniProt P11494 (AAPCFCSGKPGRGDLWILRGTCPGGYGYTSNCYKWPNICCYPH; UniProt P11494 1-43, looked up) |  |  |  |  |  |  |  |  |  |  | active | effect on Kv3.1 (Kv3.1): active; effect on TTX-sensitive channels (TTX-sensitive channels): strongly enhances; effect on Kv3.2 (Kv3.2): active; effect on TTX-resistant isoforms (TTX-resistant isoforms): weakly affected
